Results taken from patent publication US9862724B2, “Pyrazolo[1,5-a]pyrimidine-based compounds, compositions comprising them, and methods of their use” (LEXICON PHARMACEUTICALS, INC., priority 2013, dated 2018).
Where two headings read alike, the source gives them in different places.

Key:
[1] = molecular target: T1, AAK1 (Homo sapiens, UniProt Q2M2I8); assay: HEK281 cell-based assay (phospho-mu2 Western blot in transfected HEK293F cells); conditions: HEK293F cells transfected with human AAK1 and AP2M1, 3 hours, read-out: CBA IC50
T1 construct: expressed in transfected cells; host or cells: HEK293F
T1 sequence (Q2M2I8 1-863 isoform Q2M2I8-2): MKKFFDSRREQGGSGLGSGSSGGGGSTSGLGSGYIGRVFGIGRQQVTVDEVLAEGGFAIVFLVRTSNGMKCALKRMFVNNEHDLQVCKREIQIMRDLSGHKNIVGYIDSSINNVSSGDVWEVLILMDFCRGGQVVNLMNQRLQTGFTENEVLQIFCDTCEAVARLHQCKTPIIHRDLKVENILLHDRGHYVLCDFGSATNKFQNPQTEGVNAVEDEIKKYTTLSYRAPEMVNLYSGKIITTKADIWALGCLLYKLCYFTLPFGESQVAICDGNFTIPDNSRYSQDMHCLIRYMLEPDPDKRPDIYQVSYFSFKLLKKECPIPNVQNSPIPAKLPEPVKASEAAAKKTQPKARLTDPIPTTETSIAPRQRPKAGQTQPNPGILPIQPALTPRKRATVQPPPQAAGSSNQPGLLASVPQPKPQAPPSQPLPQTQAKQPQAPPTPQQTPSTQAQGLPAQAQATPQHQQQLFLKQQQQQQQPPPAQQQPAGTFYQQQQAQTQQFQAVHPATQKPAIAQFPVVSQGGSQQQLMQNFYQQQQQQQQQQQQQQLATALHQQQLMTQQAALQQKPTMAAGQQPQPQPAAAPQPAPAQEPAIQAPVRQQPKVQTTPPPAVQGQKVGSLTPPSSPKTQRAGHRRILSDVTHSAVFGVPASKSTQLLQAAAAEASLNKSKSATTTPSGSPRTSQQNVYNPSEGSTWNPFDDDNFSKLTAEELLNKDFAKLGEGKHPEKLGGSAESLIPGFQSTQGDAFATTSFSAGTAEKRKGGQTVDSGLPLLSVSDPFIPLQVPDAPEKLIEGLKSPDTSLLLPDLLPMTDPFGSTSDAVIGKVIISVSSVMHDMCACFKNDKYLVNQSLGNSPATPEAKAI
Protocol: HEK293F cells were cultured in media containing DMEM (Gibco, cat. #11965), 10% FBS (SAFC Biosciences, cat. #12103C), 1×GPS (glutamine, penicillin and streptomycin). On day one, cells were plated on a 10 cm dish so that they are ˜80% confluent at time of transfection. Roughly 12 million cells were in a 10 cm dish at time of transfection. On day two, each dish was transfected with 48 ug DNA and 144 ul Lipofectamine 2000 (Invitrogen, cat.#11668-019). The DNA was comprised of a mixture (per 10 cm dish) containing 3 ug AAK1/HA/pIRES (full length human, NCBI accession no. NP_055726.2), 45 μg Flag/AP2MI/pcDNA (full length human), and 1.5 ml OPTI-MEM. The Lipofectamine 2000 is made up of a mixture (per 10 cm dish) containing 144 μl Lipofectamine 2000 and 1.5 ml OPTI-MEM. Each mixture was transferred to individual 15 ml tubes and incubated at room temperature for 5 minutes, and then the two mixes were combined and incubated at room temperature for 20 minutes. Growth media was then aspirated from each 10 cm plate and replaced with 10 ml of DMEM+10% FBS (no GPS). Finally, 3 ml DNA/Lipofectamine mix was added to each 10 cm dish and mix gently followed by incubate of plate overnight at 37° C. and 5% CO2.
On day three, compounds were diluted in 100% DMSO at 1000× final concentration, followed by 3-fold serial dilutions for a total of 5 concentrations tested. Four compounds were tested per 10 cm dish. One ul of each compound dilution was then pipetted into a deep-well, 96-well plate, followed by addition of 500 μl DMEM+0.5% FBS into each well for a 2× final concentration of each compound. Cells were resuspended in a 10 cm dish by simple pipetting (HEK293 cells come off the plate that easy at this point) and then transferred to a 50 ml conical tube and pelleted by centrifugation at 1000 rpm for 5 min. Cell pellets were then resuspended in 2.75 ml DMEM+0.5% FBS per 10 cm dish and 100 μl of cell suspension transferred into each well of 96-well TC plate. Finally, 100 μl of 2× compound diluted in DMEM+0.5% FBS was then added into wells containing cell suspension for a 1× final concentration. Plates were then incubated at 37° C. and 5% CO2 for 3 hours followed by transferring of cell suspensions from each well into 12-tube PCR strips. The PCR strips were spun in a tip rack at 1000 rpm for 5 minutes to pellet cells and media was then removed by pipetting without disturbing the cell pellet.
To prepare for Western Blot analysis, cell pellets were resuspend in 40 ul 1×LDS-PAGE sample buffer (Invitrogen, cat.# NP0008)+2× Halt phophatase and protease inhibitor cocktail (Thermo Scientific, cat.#1861284), followed by sonicating each with microtip sonicator set at 5 for 8-10 seconds. Five ul of 10× NuPage Sample Reducing Agent (with […]) was to each sample followed by heat denaturing at 70 C for 10 min on PCR machine. A total of 10 μl per sample was loaded into each lane of a 4-20% Tris-Glycine Criterion 26-well gel (Biorad, cat.#345-0034) for the phospho-mu2 blot and 10 μl per lane in a 4-12% Bis-Tris (+MES buffer) NuPAGE 26-well gel (Invitrogen, cat.# WG1403BX10) for the mu2 blot. For controls, 2 ng of phospho-mu2 or 20 ng mu2/Flag proteins were loaded in the last well of each gel. After SDS-PAGE, samples on each gel were transferred to PVDF membrane using an iBlot and membranes were blocked for one hour in TBST+5% milk, followed by wash 3× for 5-10 min with TBST. Criterion gels were probed with rabbit anti-phospho-mu2 (1:5000; a rabbit polyclonal antibody produced by New England Peptide and affinity purified at Lexicon) in TBST+5% BSA, whereas, NuPAGE gels were probed with mouse anti-Flag (1:500; Sigma, cat.# F1804) in TBST+5% milk, and these primary antibodies were incubated overnight at 4° C. on a rocker. […]

[2] = molecular target: T2, AAK1 (full-length human protein) (Homo sapiens, UniProt Q2M2I8); assay: P81 filter plate assay; format: biochemical; conditions: 0.2 nM 2x AAK1, Mu2 substrate, 33P-ATP
T2 construct: NP_055726.2
T2 sequence (Q2M2I8 1-863 isoform Q2M2I8-2): as above
Protocol: Compounds were serially diluted into a Labcyte LDV plate (Labcyte, cat# LP-0200) using a Mutiprobe (PerkinElmer) and Biomek FX (Beckman Coulter) so that the highest compound concentration was at 96 μM. Compounds were then pinged (75 nL per well) into a Greiner 384-well reaction plate (Greiner, #781076) using an ECHO 550 Liquid Handler (Labcyte). A total of 12 μl reaction buffer (IMAP buffer containing Tween and DTT, from Molecular Devices) was then added to each well of columns 1 and 13 for the negative controls and 12 μl of 2×AAK1 (0.2 nM full-length human protein, NCBI accession no. NP_055726.2) was added to the remaining wells. Enzyme was then pre-incubated with compound for 10 minutes at RT. Reactions were initiated upon Minitrak (PerkinElmer) addition of 12 μl substrate mix containing 2×Mu2 (0.2 μM, full length human protein), 2× cold ATP (2 μM), and 1.3 μCi of hot ^33P-ATP. Reactions proceeded for one hour at RT. Meanwhile, Millipore 384-well P81 filter plates (Millipore, catalog # MZPHN0W10) were placed on a plate washer (Zoom ZW, from Titertek) and pre-wet with 50 μl […] phosphoric acid. Kinase reactions were then stopped upon addition of 24 μl of 2% phosphoric acid to each well and the Minitrak was then used to transfer 40 μl from each well into the pre-wet Millipore 384-well P81 filter plates. Reaction mixtures were incubated for 10 minutes at room temperature in the P81 plates, followed by washing five times with 100 μl/well of 1% phosphoric acid using the Zoom filter washer. The bottom of each filter plate was sealed followed by addition of 20 μl Microscint 40 to each well, sealing the top of the plates with Flashplate cover, and then waiting one hour until reading on the TopCount (PerkinElmer).

IC50 ([1]; class symbols) | IC50 ([2]; class symbols) | IC50 ([1]; numeric bounds) | IC50 ([2]; numeric bounds) | Structure (SMILES)
≤ 0.1 µM | – | – | – | CC(C)(C)CCn1ccc(-c2ccn3ncc(Br)c3n2)cc1=O [4-(3-bromopyrazolo[1,5-a]pyrimidin-5-yl)-1-(3,3-dimethylbutyl)pyridin-2(1H)-one]
≤ 0.01 µM | ≤ 0.01 µM | – | – | COCCn1ccc(-c2ccn3ncc(-c4cccnc4OC)c3n2)cc1=O [1-(2-methoxyethyl)-4-(3-(2-methoxypyridin-3-yl)pyrazolo[1,5-a]pyrimidin-5-yl)pyridin-2(1H)-one]
≤ 0.1 µM | – | – | – | COc1ncccc1-c1cnn2ccc(CCCN(C)C(=O)OC(C)C)nc12 [isopropyl (3-(3-(2-methoxypyridin-3-yl)pyrazolo[1,5-a]pyrimidin-5-yl)propyl)(methyl)carbamate]
– | – | > 0.3 µM | – | CC(C)Oc1cc(-c2ccn3ncc(CO)c3n2)ccn1 [(5-(2-isopropoxypyridin-4-yl)pyrazolo[1,5-a]pyrimidin-3-yl)methanol]
– | – | > 0.3 µM | – | C1=C(c2ccn3nccc3n2)CCNC1 [5-(1,2,3,6-tetrahydropyridin-4-yl)pyrazolo[1,5-a]pyrimidine]
≤ 0.01 µM | ≤ 0.1 µM | – | – | COc1ncccc1-c1cnn2ccc(-c3ccnc(OC(C)C)c3)nc12 [5-(2-isopropoxypyridin-4-yl)-3-(2-methoxypyridin-3-yl)pyrazolo[1,5-a]pyrimidine]
≤ 0.1 µM | – | – | – | CC(C)CCn1ccc(-c2ccn3nccc3n2)cc1=O [1-isopentyl-4-(pyrazolo[1,5-a]pyrimidin-5-yl)pyridin-2(1H)-one]
≤ 0.1 µM | – | – | – | COc1ncccc1-c1cnn2ccc(CCCCN(C)C(=O)OC(C)C)nc12 [isopropyl (4-(3-(2-methoxypyridin-3-yl)pyrazolo[1,5-a]pyrimidin-5-yl)butyl)(methyl)carbamate]
≤ 0.01 µM | ≤ 0.01 µM | – | – | COc1ncccc1-c1cnn2ccc(-c3ccn(CCC(C)C)c(=O)c3)nc12 [1-isopentyl-4-(3-(2-methoxypyridin-3-yl)pyrazolo[1,5-a]pyrimidin-5-yl)pyridin-2(1H)-one]
≤ 0.1 µM | – | – | – | CC(C)CCn1ccc(-c2ccn3ncc(Cl)c3n2)c(Cl)c1=O [3-chloro-4-(3-chloropyrazolo[1,5-a]pyrimidin-5-yl)-1-isopentylpyridin-2(1H)-one]
≤ 0.01 µM | ≤ 0.01 µM | – | – | COc1ccc(F)cc1-c1cnn2ccc(-c3ccn(CCC(C)(C)C)c(=O)c3)nc12 [1-(3,3-Dimethylbutyl)-4-(3-(5-fluoro-2-methoxyphenyl)pyrazolo[1,5-a]pyrimidin-5-yl)pyridin-2(1H)-one]
≤ 0.1 µM | – | – | – | CC(C)CCn1ccc(-c2ccn3ncc(C(F)(F)F)c3n2)cc1=O [1-isopentyl-4-(3-(trifluoromethyl)pyrazolo[1,5-a]pyrimidin-5-yl)pyridin-2(1H)-one]
≤ 0.1 µM | – | – | – | CC(C)OC(=O)c1ccc(-c2ccn3ncc(Br)c3n2)cc1 [isopropyl 4-(3-bromopyrazolo[1,5-a]pyrimidin-5-yl)benzoate]
≤ 0.01 µM | ≤ 0.01 µM | – | – | COc1ncccc1-c1cnn2ccc(-c3ccn(CC(C)C)c(=O)c3)nc12 [1-isobutyl-4-(3-(2-methoxypyridin-3-yl)pyrazolo[1,5-a]pyrimidin-5-yl)pyridin-2(1H)-one]
≤ 0.01 µM | ≤ 0.01 µM | – | – | COc1nc(C)ccc1-c1cnn2ccc(-c3ccn(CCC(C)C)c(=O)c3)nc12 [1-isopentyl-4-(3-(2-methoxy-6-methylpyridin-3-yl)pyrazolo[1,5-a]pyrimidin-5-yl)pyridin-2(1H)-one]
≤ 0.01 µM | ≤ 0.01 µM | – | – | COc1ccc(F)cc1-c1cnn2ccc(-c3ccn(CC(C)C)c(=O)c3)nc12 [4-(3-(5-fluoro-2-methoxyphenyl)pyrazolo[1,5-a]pyrimidin-5-yl)-1-isobutylpyridin-2(1H)-one]
≤ 0.01 µM | ≤ 1 µM | – | – | COc1cc(-c2ccn3ncc(-c4cc(F)ccc4OC)c3n2)ccn1 [3-(5-fluoro-2-methoxyphenyl)-5-(2-methoxypyridin-4-yl)pyrazolo[1,5-a]pyrimidine]
≤ 0.01 µM | – | – | > 0.3 µM | COc1ncccc1-c1cnn2ccc(C3CCN(C(=O)OC(C)C)CC3)nc12 [isopropyl 4-(3-(2-methoxypyridin-3-yl)pyrazolo[1,5-a]pyrimidin-5-yl)piperidine-1-carboxylate]
≤ 0.01 µM | ≤ 0.01 µM | – | – | COc1ncccc1-c1cnn2ccc(-c3ccn(CCC(F)(F)F)c(=O)c3)nc12 [4-(3-(2-methoxypyridin-3-yl)pyrazolo[1,5-a]pyrimidin-5-yl)-1-(3,3,3-trifluoropropyl)pyridin-2(1H)-one]
≤ 1 µM | – | – | – | CC(C)OC(=O)c1ccc(-c2ccn3nccc3n2)cc1 [isopropyl 4-(pyrazolo[1,5-a]pyrimidin-5-yl)benzoate]
≤ 0.01 µM | ≤ 0.01 µM | – | – | COc1ncccc1-c1cnn2ccc(C3=CCN(C(=O)OC(C)C)CC3)nc12 [isopropyl 4-(3-(2-methoxypyridin-3-yl)pyrazolo[1,5-a]pyrimidin-5-yl)-5,6-dihydropyridine-1(2H)-carboxylate]
≤ 0.01 µM | ≤ 0.01 µM | – | – | CCOc1ncccc1-c1cnn2ccc(-c3ccn(CCC(C)C)c(=O)c3)nc12 [4-(3-(2-ethoxypyridin-3-yl)pyrazolo[1,5-a]pyrimidin-5-yl)-1-isopentylpyridin-2(1H)-one]
≤ 0.1 µM | – | – | – | CC(C)OC(=O)c1ccc(-c2ccn3ncc(I)c3n2)cc1 [isopropyl 4-(3-iodopyrazolo[1,5-a]pyrimidin-5-yl)benzoate]
– | – | > 0.3 µM | – | CC(C)OC(=O)N(C)CCCCc1ccn2ncc(Br)c2n1 [isopropyl (4-(3-bromopyrazolo[1,5-a]pyrimidin-5-yl)butyl)(methyl)carbamate]
≤ 0.1 µM | – | – | – | CC(C)(C)OC(=O)N1CC=C(c2ccn3nccc3n2)CC1 [tert-butyl 4-(pyrazolo[1,5-a]pyrimidin-5-yl)-5,6-dihydropyridine-1(2H)-carboxylate]
≤ 0.01 µM | – | – | – | COc1ncccc1-c1cnn2ccc(-c3ccc(C(=O)OC(C)C)cc3)nc12 [isopropyl 4-(3-(2-methoxypyridin-3-yl)pyrazolo[1,5-a]pyrimidin-5-yl)benzoate]
